Patent US9358272B2, “Multicomponent compositions and their uses” (THE ADMINISTRATORS OF THE TULANE EDUCATIONAL FUND, priority 2011, dated 2016)
Entries after “also recorded” stand apart in the source; their conditions may differ.

What was measured:
[1] = tested on: cervical cancer Hela cells; test: Cell proliferation assay (MTT), cervical cancer Hela cells; type: cell-based, Human; conditions: single agents and combinations, VPA 2.5 mM in FIGS. 19, 22
Protocol: (§4) Briefly, fifty μl of medium with or without tested compounds was added to 96-well plates. Another 50 μl of tested cancer cells (1×10^5 cells/ml) suspended in culture medium was dispensed into each well. The plates were incubated at 37° C. for 3 days. Afterward, plates were added with a 15 μl dye solution per well and incubated at 37° C. for 4 hours. To each well was then added 100 μl of the solubilization solution and the plates were incubated at 37° C. again until the contents in each well became a uniformly colored solution. The plates were measured at 570 nm by a Victor Reader (PerkinElmer).
(§5) Briefly, 50 μl aliquots of medium with different concentrations of compounds were added to 96-well plates. All compound concentrations were tested in triplicate. Another 50 μl of the cell stock (1×10^5 cells/ml of media) was dispensed into each test well and the plates were incubated at 37° C. in a CO2 incubator for 3 days. Following the incubation period, 15 μl of the dye solution was added to each well and the plates were then incubated at 37° C. for 4 hours, followed by the addition of 100 μl per well of the solubilization solution. The plates were incubated at 37° C. until the contents in each well became a uniform-colored solution. The absorbance was measured and recorded at 570 nm by a Victor Plate Reader.

[2] = tested on: pancreatic carcinoid BON cells; test: Cell proliferation assay (MTT), BON cells; type: cell-based, Human; conditions: single agents and combinations, 2.5 mM VPA or 10 uM SBHA in FIGS. 20, 23
Protocol: as §4, §5

[3] = tested on: small cell lung cancer DMS-53 cells; test: Cell proliferation assay (MTT), DMS-53 cells; type: cell-based; conditions: single agents and combinations, 2.5 mM VPA or 10 uM SBHA in FIGS. 21, 24
Protocol: as §4, §5

CNDT2 cells = test: Cell proliferation assay (MTT), CNDT2 cells; type: cell-based; conditions: single agents and combinations
Protocol: (§1) Cell Proliferation Assay (MTT) The cell proliferation assay (Promega, Madison, Wis.) was performed as described in Sun et al., Bioorg Med Chem Lett, 2004, Vol. 14, pp. 2041-2046. The absorbance was measured and recorded at 570 nm by a Victor Plate Reader (PerkinElmer, Boston, Mass.).

Leukemia MOLT-4 cells [4] = test: Cell proliferation assay (MTT), MOLT-4 cells; type: cell-based; conditions: single agents and combinations
Protocol: as §1

[5] = tested on: prostate cancer DU-145 cells; test: Cell proliferation assay (MTT), DU-145 cells; type: cell-based; conditions: single agents and combinations
Protocol: as §1

[6] = tested on: prostate cancer PC-3 cells; test: Cell proliferation assay (MTT), PC-3 cells; type: cell-based; conditions: single agents and combinations
Protocol: as §1

[7] = tested on: ovarian cancer SKOV3 cells; test: Cell proliferation assay (MTT), SKOV3 cells; type: cell-based; conditions: single agents and combinations
Protocol: as §1

[8] = tested on: medullary thyroid cancer (MTC) TT cells; test: Cell proliferation assay (MTT), TT cells; type: cell-based; conditions: single agents and combinations
Protocol: The cell proliferation assay was performed as described previously in Sun et al., Bioorg Med Chem Lett, 2004, Vol. 14, pp. 2041-2046. Briefly, 50 μl aliquots of medium with different concentrations of compounds were added to 96-well plates. All compound concentrations were tested in triplicate. Another 50 μl of the cell stock (1×10^5 cells/ml of media) was dispensed into each test well and the plates were incubated at 37° C. in a CO2 incubator for 3 days. Following the incubation period, 15 μl of the dye solution was added to each well and the plates were then incubated at 37° C. for 4 hours, followed by the addition of 100 μl per well of the solubilization solution. The plates were incubated at 37° C. until the contents in each well became a uniform-colored solution. The absorbance was measured and recorded at 570 nm by a Victor Plate Reader.

[9] = tested on: hepatoma HB-8064 (Hep3B) cells; test: Cell proliferation assay (MTT), HB-8064 cells; type: cell-based
Protocol: as §1

hepatoma HTB-52 cells = test: Cell proliferation assay (MTT), HTB-52 cells; type: cell-based; conditions: single agents and combinations
Protocol: as §1

T-ALL HPB-ALL cells = test: Cell proliferation assay (MTT), HPB-ALL cells; type: cell-based, Human
Protocol: as §1

Jurkat cells [10] = test: Cell proliferation assay (MTT), Jurkat cells; type: cell-based
Protocol: as §1

[11] = tested on: cervical cancer Hela tumors; test: In vivo tumor growth and treatment, Hela tumors; parameters: species or system nude mice; conditions: for tumor inhibitory rate: Hela tumors in nude mice
Protocol: In Vivo Tumor Growth and Treatment
All mice were monitored weekly. Tumor volumes were measured at 11 days post-implantation and bodyweights taken once a week. Tumors were weighed and photographed when experiments were over.
After being harvested during exponential growth phase, cells were washed 3 times with ice-cold PBS and then re-suspended in ice-cold PBS at a cell density of 4×10^7 cells/ml. […] Tumor-carrying mice were separated into four groups (n=8-10) for further treatment using s.c. injections that was applied in the flank opposite of the tumors. A control group was injected with PBS, and three tested groups were treated with compounds. One group received conjugate COL-SST (2 mg/kg) and one group received 200 mg/kg of VPA. The last group was treated with 100 mg/kg of VPA in combination with 1 mg/kg of COL-SST. All mice were injected once a day, five times a week. Tumor volumes were measured and bodyweights taken once a week.
After being harvested during their exponential growth phase, cells were washed 3 times with ice-cold PBS and then re-suspended in ice-cold PBS at a cell density of 4×10^7 cells/ml. […] Tumor-carrying mice were separated into four groups (n=8-10) for further treatment using s.c. injections that were applied in the flank opposite to the tumors. A control group was injected with PBS and three tested groups were treated with compounds. One group received conjugate COL-SST (2 mg/kg) and one group received 200 mg/kg of VPA. The last group was treated with 100 mg/kg of VPA in combination with 1 mg/kg of COL-SST. All mice were injected once a day, five times a week. Tumor volumes were measured and bodyweights taken once a week.

[12] = tested on: gene expression in pancreatic carcinoid BON cells; test: RT-PCR / real-time PCR gene expression, BON cells; type: cell-based, Human
Protocol: RT-PCR, Real-Time PCR and PCR Array
Total RNAs were isolated from tumor cells as described in the kit protocol (Invitrogen, Carlsbad, Calif.).
As for real-time PCR, the primers are the same as described in Table 1. Real-time PCR assays were performed on a Bio-Rad iCycler (Hercules Calif.). Assays were set up using iScript™ cDNA Synthesis Kit and iQ™ SYBR Green Supermix (Bio-Rad). The cDNA synthesis was run for one cycle of 25° C. for 5 min, 42° C. for 30 min, 85° C. for 5 min, and held at 4° C. PCR reactions were run in 10 μl reactions. Each 10 μl reaction contained 4 μl template (either cDNA, genomic or plasmid DNA), 5 μl iQ SYBR Green Supermix (BioRad), and 0.25 μM each of the corresponding forward and reverse primers. PCR was further run under the conditions below: one cycle of 95° C. for 5 min for initial denaturation and 40 cycles of 95° C. for 30 s and 56° C. (SST), 57° C. (SSTR2) for 30 s for primer annealing and product elongation. For melt curve data collection and analysis, one cycle of 95° C. for 1 min and 55° C. for 1 min was run with an increase of the temperature at a rate of 0.5° C. from 55° C. to 95° C. The experiments were done by holding at 15° C. β-actin was used as internal control. Results were calculated using the comparative 2^−ΔΔCT methods as described in Livak et al., Methods, 2001, Vol. 25, pp. 402-408.
(§2) RT-PCR was performed on total RNA that was isolated from tumor cells as described in the protocol (Invitrogen, Carlsbad, Calif.). All primers for SST, BN, and PACAP receptors were obtained from previously published reports, such as Sun et al. 2011. The PCR amplification is regularly 35 cycles, with more or less cycles due to the difference in RNA abundance of these investigated genes. Primers used for real-time PCR analyses were identical to those described above. Real-time PCR assays were performed as described in Sun et al 2011. β-actin was used as the internal control and results were calculated by applying 2^−ΔΔCT methods as described above.

[13] = tested on: gene expression in SCLC DMS-53 cells; test: RT-PCR / real-time PCR gene expression, DMS-53 cells; type: cell-based
Protocol: as §2, with “RT-PCR, Real-Time PCR RT-PCR” for “RT-PCR”

osteosarcoma U2OS cells = test: VPA-induced cell morphological change, U2OS cells; type: cell-based, Human
Text: (§3) The cancer cells were inspected and photographed under an inverted light microscope at 10× magnification.

lung cancer A549 cells = test: VPA-induced cell morphological change, A549 cells; type: cell-based
Text: as §3

cancer DU-145 cells = test: VPA-induced cell morphological change, DU-145 cells; type: cell-based
Text: as §3

Leukemia MOLT-4 cells [14] = test: VPA-induced cell morphological change, MOLT-4 cells; type: cell-based
Text: as §3

Jurkat cells [15] = test: VPA-induced cell morphological change, Jurkat cells; type: cell-based
Text: as §3

HPB-ALL cells = test: VPA-induced cell morphological change, HPB-ALL cells; type: cell-based, Human
Text: as §3

MTC TT cells = test: VPA-induced cell morphological change, TT cells; type: cell-based
Text: as §3

CCCC(CCC)C(=O)O [VPA, valproic acid]
cell growth suppression (MTT), in words [1]: displayed growth inhibition; also recorded: suppressed cell proliferation in a dose-dependent manner; also recorded: induced growth arrest; also recorded: suppressed cervical cancer Hela cell growth in a dose-dependent manner
cell growth suppression (MTT), in words [2]: displayed growth inhibition; also recorded: induced growth arrest; also recorded: suppressed growth
cell growth suppression (MTT), in words [3]: displayed growth inhibition; also recorded: induced growth arrest
cell growth suppression (MTT), in words (CNDT2 cells): suppressed growth
cell growth suppression (MTT), in words (Leukemia MOLT-4 cells [4]): displayed its anti-proliferative ability; also recorded: suppressed growth; also recorded: displays its anti-proliferation ability
cell growth suppression (MTT), in words [5]: displayed its anti-proliferative ability; also recorded: displays its anti-proliferation ability
cell growth suppression (MTT), in words [6]: displayed its anti-proliferative ability; also recorded: displays its anti-proliferation ability
cell growth suppression (MTT), in words [7]: displayed its anti-proliferative ability; also recorded: displays its anti-proliferation ability
cell growth suppression (MTT), in words [8]: induced growth arrest
cell growth suppression (MTT), in words [9]: displayed its anti-proliferative ability
cell growth suppression (MTT), in words (hepatoma HTB-52 cells): displayed its anti-proliferative ability
cell growth suppression (MTT), in words (T-ALL HPB-ALL cells): displayed its anti-proliferative ability
cell growth suppression (MTT), in words (Jurkat cells [10]): displayed its anti-proliferative ability
tumor inhibitory rate ([11]; VPA at 200 mg/kg s.c. once a day, five times a week, FIG. 42): 36.7%
tumor inhibitory rate ([11]; VPA at 200 mg/kg, FIG. 37): 46%
suppression of Hela tumors, in words ([11]; nude mice, FIG. 42): induced suppression
effect on expression of Notch receptors (RT-PCR), in words ([12]; VPA at serial doses, FIG. 52): increased the expression of Notch1, Notch2, and Notch3; Notch4 was undetectable
induction of SSTR2 expression ([12]; VPA treatment, confirmed by real-time PCR): 25 fold
effect on expression of SST, BN and PACAP receptors (RT-PCR), in words ([12]; VPA treatment, dose-dependent, FIG. 55): induced the expression of SSTR2 (25-fold, confirmed by real-time PCR), SSTR4, BRS3, GRPR, and VPAC2 and suppressed SSTR1
slight decrease of SSTR5 expression ([12]; VPA treatment, real-time PCR): 0.9 fold
effect on Notch1, SST, and SSTR2 expression, in words ([12]; different concentrations of VPA, beta-actin as control, FIG. 17): activated expression of Notch1, SST, and SSTR2
effect on expression of SST, BN and PACAP receptors (RT-PCR), in words ([13]; DMS53 cells, VPA treatment, FIG. 55): SSTR2 (5.4-fold, confirmed by real-time PCR), SSTR3, GRPR, and PAC1 increased, with no obvious change in SSTR1, SSTR2, VPAC1, NMBR, and BRS3
increase of SSTR2 expression ([13]; DMS53 cells, VPA treatment, confirmed by real-time PCR): 5.4 fold
effect on expression of Notch receptors (RT-PCR), in words ([13]; DMS-53 cells, VPA at serial doses, FIG. 52): increased the expression of Notch1 and Notch2, with no obvious change of expression in the others
VPA-induced Notch1 increase ([13]; DMS-53 cells, real-time PCR): > 2 fold
cell morphological change, in words (osteosarcoma U2OS cells): could induce morphological change
cell morphological change, in words (lung cancer A549 cells): no effect
cell morphological change, in words (cancer DU-145 cells): no effect
cell morphological change, in words (Leukemia MOLT-4 cells [14]): no effect
cell morphological change, in words (Jurkat cells [15]): no effect
cell morphological change, in words (HPB-ALL cells): no effect
cell morphological change, in words (MTC TT cells): no effect
